Test results from paper PMC11091220, “Metabolism-driven in vitro/in vivo disconnect of an oral ERɑ VHL-PROTAC” (Communications Biology, 2024).

Tests used:
[1] = Solution NMR hydrogen-bond donor shielding (A-NMR, temperature-dependent shift); type: physicochemical; settings: N-terminal amide HBD of (S,R,S)-AHPC
From the text: 1. Supplementary Note 1: 3D Conformer of AZ’6421 (5) free in solution
PROTACs are prone to intramolecular interactions that can substantially modify their drug-like properties.1 Here we used solution NMR spectroscopy to determine the 3D conformer of 5 free in solution. Initially, water/DMSO mixtures were utilised to enhance solubility of these highly lipophilic compounds in a relevant protic solvent. However, The 1D 1H-NMR signals of 5 in a mixture of DMSO […]
pure DMSO was used for simplicity. By two 1D 1H-NMR based methods A-NMR2 and temperature- […]
values are both indicative of HBD shielding, whereas the benzyl-amide NH donor of the VHL binding motif and the indole NH in the ERα binding substructure show values characteristic of solvent exposure. By 2D rotating-frame nuclear Overhauser effect (NOE) and 1H-13C long-range correlation (13C-HSQMBC) NMR spectroscopy we determined distance and tortional angle restraints for 3D structure calculation showing an intra-molecular H-bond to the ether oxygen proximal to the N-terminus of (S,R,S)-AHPC. Deletion of this ether oxygen from the N-terminus of (S,R,S)-AHPC produces a large chemical change of 0.6 ppm for the NH donor, whereas most other 1H signals remain unchanged (Figure S3). […]

ERα [2] = target: T1, ERα (Homo sapiens, UniProt P03372); test: CRISPR VHL knock out, ERα imaging in MCF7 Cas9 cells; type: cell-based; settings: MCF7 Cas9, 24 h
T1 construct: endogenous in cells; host or cells: MCF7 (also MCF7 engineered to express Cas9)
T1 sequence (P03372 1-595): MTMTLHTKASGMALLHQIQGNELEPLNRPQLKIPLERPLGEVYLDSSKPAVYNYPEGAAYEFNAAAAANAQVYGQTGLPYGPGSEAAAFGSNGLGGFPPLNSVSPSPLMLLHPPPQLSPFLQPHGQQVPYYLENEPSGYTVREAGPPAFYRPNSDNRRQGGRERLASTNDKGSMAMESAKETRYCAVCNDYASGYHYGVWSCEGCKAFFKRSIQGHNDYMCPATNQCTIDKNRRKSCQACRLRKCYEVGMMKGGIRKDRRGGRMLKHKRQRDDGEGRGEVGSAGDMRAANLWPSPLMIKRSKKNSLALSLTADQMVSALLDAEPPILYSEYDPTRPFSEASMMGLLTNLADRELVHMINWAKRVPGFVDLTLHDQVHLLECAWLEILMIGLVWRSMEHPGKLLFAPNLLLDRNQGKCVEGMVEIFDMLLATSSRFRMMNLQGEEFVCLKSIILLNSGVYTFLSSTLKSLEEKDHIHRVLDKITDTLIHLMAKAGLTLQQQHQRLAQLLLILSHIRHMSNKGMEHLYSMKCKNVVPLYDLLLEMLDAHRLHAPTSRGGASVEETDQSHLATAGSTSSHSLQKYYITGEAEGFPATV
Procedure: Chemically synthesised Edit-R crRNAs targeting VHL and ESR1 were purchased from Horizon Discovery (Cambridge, UK). Equal volumes of 4 crRNAs targeting each individual gene were pooled and then duplexed at a 1:1 ratio in 10 mM Tris pH7.4 buffer with tracrRNA (Horizon, U-002000-50) at room temperature. MCF7 cells were engineered to express cas9 under TetON promotor from the endogenous AAVS1 locus as described previously. Doxycycline-inducible Cas9 is linked via the cleavable T2A peptide to BFP enabling the identification of Cas9-positive cells by microscopy. MCF7 cas9 cells were cultured in RPMI phenol red free (Sigma) supplemented with 10% FBS and 1X GlutaMax (both Gibco). 72 h prior to reverse transfection, cas9 expression was induced by the addition 15 ng/mL doxycycline (Sigma) to the growth media.
MCF7 cells were reverse transfected with the crRNA:tracrRNA pools at 25 nM final concentration using Lipofectamine® RNAiMAX transfection reagent (Thermo Fisher): First crRNA:tracrRNA pools were dispensed into 384-well assay plates (Greiner, 781090), and incubated with 10 µL serum-free DMEM (Sigma) supplemented with 1% Lipofectamine RNAiMAX for 20 minutes at room temperature. […] Following image acquisition, analysis was completed using the Columbus Image Analysis platform (Perkin Elmer) to quantify ESR1 levels in cas9-positive cells. […]

ERα [3] = target: T1, ERα; test: Hypoxia studies, ERα degradation in MCF7 cells; type: cell-based; settings: for reduction in ERα levels: MCF7, 48 h
Procedure: MCF7 cells were seeded into 12-well tissue culture-treated plates at 0.5x10^6 cells/well in phenol red-free RPMI media containing 5% (volume/volume [v/v]) charcoal-stripped FBS (F6765, Sigma) and left to adhere overnight. The hypoxia-treated plates were transferred to a Thermo Heracell 150 Tri-gas Incubator set at 2% O2 and allowed to equilibrate to the lower oxygen level overnight. Cells were treated with compound or 0.1% DMSO vehicle control for 48 hours prior to being lysed in Pierce RIPA buffer (Thermo Scientific), supplemented with protease and phosphatase inhibitors. Lysis was carried out immediately after removal from the Tri-gas incubator to prevent the rapid degradation of HIF1α on re-exposure to the higher oxygen levels. Protein expression was determined by standard western blotting procedures as described above.

## Cc1ncsc1-c1ccc(CNC(=O)[C@@H]2C[C@@H](O)CN2C(=O)[C@@H](NC(=O)COCCCOCCCOc2cc(F)c([C@@H]3c4[nH]c5ccccc5c4C[C@@H](C)N3CC(C)(C)F)c(F)c2)C(C)(C)C)cc1 [Compound 5]
[1]
  A-NMR value: 0.03
[1]; DMSO
  temperature-dependent perturbation: -2.6 ppb/K
ERα [2]
  effect of VHL knockout on ER degradation: partially reduced
ERα [3]; 10 nM, hypoxic (2% O2)
  reduction in ERα levels: 99%
ERα [3]; 10 nM, normoxic
  reduction in ERα levels: 98%
ERα [3]; Hypoxic, 0.1 nM
  ERa levels (% of vehicle control): 45.941%
ERα [3]; Hypoxic, 1 nM
  ERa levels (% of vehicle control): 5.353%
ERα [3]; Hypoxic, 10 nM
  ERa levels (% of vehicle control): 0.903%
ERα [3]; Hypoxic, 100 nM
  ERa levels (% of vehicle control): 0.157%
ERα [3]; Normoxic, 0.1 nM
  ERa levels (% of vehicle control): 31.081%
ERα [3]; Normoxic, 1 nM
  ERa levels (% of vehicle control): 8.315%
ERα [3]; Normoxic, 10 nM
  ERa levels (% of vehicle control): 1.645%
ERα [3]; Normoxic, 100 nM
  ERa levels (% of vehicle control): 0.645%
